Literature values, collected in patent publication US12502373B2, “High-content abamectin emulsifiable concentrate” (Rotam Agrochem International Company Limited, priority 2021, dated 2025).

Experiments:
[1] = pH: 5-9 and 25° C.

Abamectin
hydrolysis of the aqueous solution [1]: will not be hydrolysed | oral LD50 (rats): 1470 mg/kg
